Values of other authors, collected in patent publication US8221792B2 (Farnam Companies, Inc., priority 2005, dated 2012).
Counter-ions that a name gives are not always drawn. Like-named read-outs stand apart in the source and are kept apart here.

Legend:
[1] = in human
[2] = in dogs
[3] = in vivo

**Q.** Which results are given for `COc1cccc(C2(O)CCCCC2CN(C)C)c1` (centres unmarked) [Tramadol HCl]?
**A.** solubility in water: freely soluble; solubility in water (listed as tramadol hydrochloric acid salt): highly water soluble

**Q.** Which half-life [1] does the source give for `COc1cccc([C@@]2(O)CCCC[C@@H]2CN(C)C)c1` (racemic) [tramadol, rac-(1R,2R)-2-(dimethylaminomethyl)-1-(3-methoxyphenyl)-cyclohexanol] here?
**A.** 5.6 to 7.0 h

**Q.** What about the half-life [2] of the same compound?
**A.** 0.8 to 1.7 h

**Q.** For `NCC1(CC(=O)O)CCCCC1` [Gabapentin], which elimination half-life [3] is on record?
**A.** 5 to 7 h
